Laboratory results from patent publication US11872209B2, “Treatment for primary biliary cholangitis” (Zydus Lifesciences Limited, priority 2016, dated 2024).
Entries after “also recorded” stand apart in the source; their conditions may differ. Where a name gives a salt, the structure may show the parent alone.

Tested on: carbon tetrachloride-induced liver fibrosis
Experiment: Carbon tetrachloride-induced liver fibrosis in male Sprague Dawley rats
Type: in vivo
Settings: 0.4 and 4 mg/kg/day orally for 4 weeks with continued CCl4 injections
Experimental: To assess the effect of Compound of formula (Ia) on the progression of established hepatic fibrosis, fibrosis was induced in rats by twice weekly carbon tetrachloride (CCl4) injections for 2 weeks via an intraperitoneal route. Compound (Ia) (0.4 and 4 mg/kg/day), pioglitazone (10 mg/kg/day), fenofibrate (100 mg/kg/day) or vehicle (Tween 80 and 0.5% sodium salt of carboxymethylcellulose at ratio of 0.5:99.5) was then orally administered for 4 weeks to animals concomitantly with continued CCl4 injections. After 4 weeks of treatment, blood samples were collected 1 h post-dose, for estimation of non-fasted serum ALT and other serum parameters. All the animals were sacrificed; liver was quickly removed, weighed and fixed in 10% formalin for histological analysis or snap frozen in liquid nitrogen for other assays. Light microscopic examination of liver tissue was performed using standard hematoxylin and eosin (H&E) staining. Hepatic fibrosis was accessed by Masson's trichrome staining method.

SMILES: CCO[C@@H](Cc1ccc(OCCn2c(C)ccc2-c2ccc(SC)cc2)cc1)C(=O)O [Compound (Ia), saroglitazar magnesium salt]
- Effect on CCl4-induced liver fibrosis (after 2 weeks of CCl4, listed as Compound of formula (Ia)): protected the animals from further deterioration and exhibited a dose-dependent reversal of CCl4-induced liver fibrosis; also recorded: protected the animals from further deterioration and showed dose dependent reversal of CCl4-induced liver fibrosis
- Microscopic quantification of fibrosis (H&E and Masson's trichrome staining of liver tissues) (FIG. 1): stopped the progression of established liver fibrosis and accelerated liver recovery
